Measured values as given in patent publication US8809627B2, “Plant isoflavone and isoflavanone O-methyltransferase genes” (The Samuel Roberts Noble Foundation, Inc., priority 2006, dated 2014).
Where no end group is shown, it is not given here.

Columns and labels:
[1] = Specific activity of the purified IOMTs with the most converted substrate; type: biochemical; settings: 50 μM S-adenosyl methionine, 100 μM acceptor substrate
Procedure: (§1) For determination of specific activities, reactions (100 μl) were performed in 0.1 M potassium phosphate, pH 7.4, 10% (w/v) sucrose, 14 mM β-mercaptoethanol with 0.2-μg protein, 50 μM S-adenosyl-L-methionine (0.025 μCi ^14C-SAM per reaction), and 100 μM substrate. Reactions were incubated at 30° C. for 15-25 min and stopped by addition of 4 μl of 1N HCl. Products were extracted into 500 μl of ethyl acetate and 400 μl was used for liquid scintillation counting.

[2] = Quantification of methylated products in reactions with dihydrodaidzein; type: biochemical
Procedure: (§2) Reactions (200 μl) were performed in 0.1 M potassium phosphate, pH 7.4, 10% (w/v) sucrose, 14 mM β-mercaptoethanol with 10 μM protein, 0.5 mM S-adenosyl-L-methionine, and 80 μM phenolic substrates. All substrates were purchased from Indofine (Hillsborough, N.J.) except 6,7-dihydroxy-4′-methoxyisoflavone, dihydrodaidzein, and vestitol, which were purchased from Apin (Oxfordshire, UK). […] OMT assays were incubated at 30° C. for 2 h and extracted with ethyl acetate. Ethyl acetate extracts were dried under N2 and the resultant material was resuspended in 50-100 μl of methanol. Samples were analyzed on an Agilent 1100 HPLC, equipped with a quaternary pump (model #G1311A), a degasser (model #G1322A), an autosampler (model #G1313A), and a diode array detector (model #G1315A). Samples of 20 μl were applied to an ODS2 reverse-phase column (5 μm particle size, 4.6×250 mm) and eluted in 1% (v/v) phosphoric acid with an increasing gradient of acetonitrile (0-5 min, 25%; 5-35 min, 25-50%; 35-39 min, 50-100%) at a flow rate of 1 ml/min. To resolve the 4′-O-methylated and 7-O-methylated products of genistein, samples were applied to a Phenomenex SYNERGI Polar-RP 80 Å column (4 μm particle size, 4.6×250 mm) and eluted in water with an increasing gradient of acetonitrile (0-5 min, 20%; 5-17 min, 20-38%; 17-33 min, 38%; 33-45 min, 38-56%; 45-46 min, 56-100%) at a flow rate of 1 ml/min. Chiral chromatography was performed as described (Liu et al., 2005).
An HP 1100 series II LC system (Hewlett-Packard, Palo Alto, Calif.) with a photodiode array detector was coupled to a Bruker Esquire ion-trap mass spectrometer (ITMS) equipped with an electrospray ionization source. A reverse phase, C18, 5 μm, 4.6×250 mm column (J. T. Baker, Phillipsburg, N.J.) was used for separations. The mobile phase consisted of 0.1% (v/v) acetic acid using linear gradients of 5-90% acetonitrile (v/v) in 70 min. The flow rate was 0.8 ml/min, and the temperature of the column was kept at 28° C. Both positive- and negative-ion mass spectra were acquired. Positive-ion ESI was performed using an ion source voltage of 4.0 KV and a capillary offset voltage of 86.0 V. Nebulization was aided with a coaxial nitrogen sheath gas provided at a pressure of 60 psi. Desolvation was aided using a counter current nitrogen flow set at a pressure of 12 psi and a capillary temperature of 300° C. Mass spectra were recorded over the range 50-2200 m/z. The ITMS was operated under an ion current control of approximately 10,000 with a maximum acquire time of 100 ms. Tandem mass spectra were obtained in manual mode for targeted masses using an isolation width of 2.0, fragmentation amplitude of 2.2 and threshold set at 6,000.
To determine the regio-specificity of methylation, reaction products were subjected to HPLC separation and identified by comparison to available standards, or subjected to tandem MS analysis (FIGS. 10-13; Table 4)

MtIOMT5 = molecular target: T1, MtIOMT5 (Medicago truncatula, UniProt Q29U70); assay: OMT assays with purified recombinant MtIOMT5 (relative activity; HPLC/MS of products); type: biochemical; settings: for Position of methylation / reaction products, MtIOMT5: HPLC against standards, tandem MS
T1 construct: His-tag (N); made in house; host or cells: E. coli BL21(DE3)
T1 sequence (Q29U70 1-364): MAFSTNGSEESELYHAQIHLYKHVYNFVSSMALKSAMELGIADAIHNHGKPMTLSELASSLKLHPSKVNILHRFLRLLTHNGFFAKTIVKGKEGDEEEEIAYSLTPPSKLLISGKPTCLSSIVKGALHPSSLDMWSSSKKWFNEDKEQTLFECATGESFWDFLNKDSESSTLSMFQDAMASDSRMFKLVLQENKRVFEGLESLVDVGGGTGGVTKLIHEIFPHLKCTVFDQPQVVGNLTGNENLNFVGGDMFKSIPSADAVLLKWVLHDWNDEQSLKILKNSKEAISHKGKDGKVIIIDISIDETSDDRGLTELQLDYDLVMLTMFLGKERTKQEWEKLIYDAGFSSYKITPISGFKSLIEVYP
Description: (§3) Cloning of MtIOMT5 (corresponding to TC 100926, TIGR MtGI v.8) was as described previously (Liu et al., 2005). To obtain a full-length cDNA for MtIOMT2, specific primers designed based upon the M. truncatula genomic sequence were used to amplify the MtIOMT2 coding sequence from M. truncatula root cDNA. The amplified product was cloned into the pGEM®-T easy vector (Promega, Madison Wis.) and sequenced to confirm its identity. MtIOMTs were cloned into the pET28a vector (EMD Biosciences, Inc., San Diego, Calif.) using PCR-based amplification with primers designed to introduce EcoRI and XhoI restriction sites; BamHI and XhoI sites were used for cloning MtIOMT6 due to the presence of an internal EcoRI site in this particular cDNA. Because the EST for MtIOMT8 was missing a start codon, the primer designed to clone MtIOMT8 into pET28a contained an additional 2-nucleotide insertion to generate an ATG start site. All MtIOMTs were expressed as translational fusions to an N-terminal His-tag. Expression of MtIOMTs in E. coli BL21(DE3) and purification by Ni^2+-NTA chromatography were as described (Zubieta et al., 2001). Proteins were dialyzed against 20 mM Tris pH 8.0, 100 mM NaCl, 10% (v/v) glycerol, and 14 mM β-mercaptoethanol. Protein concentration was determined by Bradford assay using BSA as a standard (Bradford, 1976).
as §2, §1
An HP 1100 series II LC system (Hewlett-Packard, Palo Alto, Calif.) with a photodiode array detector was coupled to a Bruker Esquire ion-trap mass spectrometer (ITMS) equipped with an electrospray ionization source. A reverse phase, C18, 5 μm, 4.6×250 mm column (J. T. Baker, Phillipsburg, N.J.) was used for separations. The mobile phase consisted of 0.1% (v/v) acetic acid using linear gradients of 5-90% acetonitrile (v/v) in 70 min. The flow rate was 0.8 ml/min, and the temperature of the column was kept at 28° C. Both positive- and negative-ion mass spectra were acquired. […]

MtIOMT7 = assay: OMT assays with purified recombinant MtIOMT7 (relative activity; HPLC/MS of products); type: biochemical, Medicago truncatula; settings: 50 μM S-adenosyl methionine, 100 μM acceptor substrate; most converted substrate = 100%
Description: as §3, §2, §1
An HP 1100 series II LC system (Hewlett-Packard, Palo Alto, Calif.) with a photodiode array detector was coupled to a Bruker Esquire ion-trap mass spectrometer (ITMS) equipped with an electrospray ionization source. A reverse phase, C18, 5 μm, 4.6×250 mm column (J. T. Baker, Phillipsburg, N.J.) was used for separations. The mobile phase consisted of 0.1% (v/v) acetic acid using linear gradients of 5-90% acetonitrile (v/v) in 70 min. The flow rate was 0.8 ml/min, and the temperature of the column was kept at 28° C. Both positive- and negative-ion mass spectra were acquired.

MsI7OMT = molecular target: T2, MsI7OMT (Medicago sativa, UniProt O24529); settings: reported by He et al., 1998; cited from earlier work
T2 sequence (O24529 1-352): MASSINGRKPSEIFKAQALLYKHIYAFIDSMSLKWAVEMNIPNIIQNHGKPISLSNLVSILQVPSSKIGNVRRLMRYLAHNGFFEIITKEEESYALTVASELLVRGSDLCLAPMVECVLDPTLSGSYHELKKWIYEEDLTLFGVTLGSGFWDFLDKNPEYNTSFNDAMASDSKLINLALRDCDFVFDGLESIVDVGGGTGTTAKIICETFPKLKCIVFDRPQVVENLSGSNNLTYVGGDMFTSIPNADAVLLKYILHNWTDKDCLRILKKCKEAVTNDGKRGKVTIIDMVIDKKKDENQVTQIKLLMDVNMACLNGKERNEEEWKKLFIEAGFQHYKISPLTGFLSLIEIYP

Row | Compound | Specific activity at 100% [1] [pkat/mg] | % 4′-Methylated [2] [%] | % 7-Methylated [2] [%] | % Dimethylated [2] [%] | Ratio 4′/7-methylated [2] | Relative activity, MtIOMT5 (MtIOMT5; 50 μM S-adenosyl methionine, 100 μM acceptor substrate, most converted substrate = 100%) [%] | Position of methylation / reaction products, MtIOMT5 (MtIOMT5) | Relative activity, MtIOMT7 (MtIOMT7) [%] | Enantiomer methylated, MtIOMT5 (MtIOMT5; chiral HPLC of unreacted substrate) | Activity of MsI7OMT with 4′-methoxyisoflavones (in words) (MsI7OMT)
1 | MtIOMT2: M. truncatula isoflavonoid O-methyltransferase, His-tagged, expressed in E. coli; GenBank DQ419910 (NFVGGDMFKSVPSADAVLLKWVLHDWNDELCLKILKNCKE; His tag; listed as Medicago truncatula) | 930.2 | 33 | 66 | <1 | 0.5 | – | – | – | – | –
2 | MtIOMT3: M. truncatula isoflavonoid O-methyltransferase, His-tagged, expressed in E. coli; GenBank DQ419911 (TYVGGDMFISVPKADAVLLKAVLHDWTDKDCIKILKKCKE; cysteine pairing not given here; also: His-tagged; listed as Medicago truncatula) | 7.4 | 92 | 8 | 0 | 11.4 | – | – | – | – | –
3 | O=C1c2ccc(O)cc2OC(O)C1c1ccc(O)cc1 (stereo not drawn) [2,7,4′-trihydroxyisoflavanone] | – | – | – | – | – | 100 | exclusively methylated on the 4′-position | 24.8 | – | –
4 | MtIOMT1: M. truncatula isoflavonoid O-methyltransferase, His-tagged, expressed in E. coli; GenBank AY942159 (TYVGGDMFTSIPNADAVLLKYILHNWTDKDCTRILKKCKE; cysteine pairing not given here; also: His-tagged; listed as Medicago truncatula) | 3646.7 | 0 | >99 | <1 | 0 | – | – | – | – | –
5 | O=C1C[C@@H](c2ccc(O)cc2)Oc2cc(O)ccc21 [Liquiritigenin] | – | – | – | – | – | – | methylated on the 4′-positions | – | preferentially methylates the (2R)-enantiomer | –
6 | COc1ccc(-c2coc3cc(O)cc(O)c3c2=O)cc1 [biochanin A] | – | – | – | – | – | – | – | – | – | little activity
